Tests used:
corn = experiment: Test A pre-/postemergence herbicide test; format: in vivo, Zea mays; details: Postemergence
Outline: (§1)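 Planted in loam–sand blend; treated the same day preemergence by directed soil spray, while separately grown plants at one- to two-leaf stage got postemergence spray. Compared visually with untreated controls after approximately 10 days; 100 means complete control.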

morningglory = experiment: Test C pre-/postemergence herbicide test; format: in vivo, Ipomoea coccinea
Outline: (§2)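 Test compounds, formulated in a surfactant-containing non-phytotoxic solvent blend, are applied to seeded loam/sand soil (preemergence) and to young plants at the 1- to 4-leaf stage in peat-based medium (postemergence). Plants stay 13 to 15 days under greenhouse conditions, then are scored visually relative to controls, 0 = no effect, 100 = complete control.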

ryegrass, Italian = experiment: Test C pre-/postemergence herbicide test; format: in vivo, Lolium multiflorum
Source text: (§3) Seeds of plant species selected from blackgrass (Alopecurus myosuroides), ryegrass, Italian (Italian ryegrass, Lolium multiflorum), wheat (winter wheat, Triticum aestivum), galium (catchweed bedstraw, Galium aparine), corn (Zea mays), crabgrass, large (large crabgrass, Digitaria sanguinalis), foxtail, giant (giant foxtail, Setaria faberii), johnsongrass (Sorghum halepense), lambsquarters (Chenopodium album), morningglory (Ipomoea coccinea), nutsedge, yellow (yellow nutsedge, Cyperus esculentus), pigweed (Amaranthus retroflexus), ragweed (common ragweed, Ambrosia elatior), soybean (Glycine max), barnyardgrass (Echinochloa crus-galli), oilseed rape (Brassica napus), waterhemp (common waterhemp, Amaranthus rudis), kochia (Kochia scoparia), oat, wild (wild oat, Avena fatua), surinam grass (Brachiaria decumbens), foxtail, green (green foxtail, Setaria viridis), goosegrass (Eleusine indica), bromegrass, downy (downy bromegrass, Bromus tectorum), nightshade (eastern black nightshade, Solanum ptycanthum), cocklebur (common cocklebur, Xanthium strumarium), cupgrass, woolly (woolly cupgrass, Eriochloa villosa), bermudagrass (Cynodon dactylon), sunflower, (common oilseed sunflower, Helianthus annuus), Russian thistle (Salsola kali) and velvetleaf (Abutilon theophrasti) were planted into a blend of loam soil and sand and treated preemergence with test chemicals formulated in a non-phytotoxic solvent mixture which included a surfactant. At the same time, plants selected from these crop and weed species and also barley (winter barley, Hordeum vulgare), […]), chickweed (common chickweed, Stellaria media), deadnettle (henbit deadnettle, Lamium amplexicaule), and canarygrass (littleseed canarygrass, Phalaris minor) were planted in pots containing Redi-Earth® planting medium (Scotts Company, 14111 Scottslawn Road, Marysville, Ohio 43041) comprising spaghnum peat moss, vermiculite, wetting agent and starter nutrients and treated with postemergence applications of test chemicals formulated in the same manner. Plants ranged in height from 2 to 18 cm (1- to 4-leaf stage) for postemergence treatments. Treated plants and controls were maintained in a greenhouse for 13 to 15 days, after which time all species were compared to controls and visually evaluated. Plant response ratings, summarized in Table C, are based on a scale of 0 to 100 where 0 is no effect and 100 is complete control. A dash (-) response means no test result.

barnyardgrass = experiment: Test C pre-/postemergence herbicide test; format: in vivo, Echinochloa crus-galli
Outline: as §2

johnsongrass = experiment: Test C pre-/postemergence herbicide test; format: in vivo, Sorghum halepense
Source text: as §3

kochia = experiment: Test A pre-/postemergence herbicide test; format: in vivo, Kochia scoparia
Outline: as §1

[1] = 125 g ai/ha, visual rating on 0 to 100 scale (0 no effect, 100 complete control), approx. 10 days
[2] = 500 g ai/ha, 0 to 100 scale (0 no effect, 100 complete control)
[3] = Postemergence, 31 g ai/ha, scale 0 to 100 (0 no effect, 100 complete control)
[4] = Postemergence, 62 g ai/ha, scale 0 (no effect) to 100 (complete control)
[5] = Postemergence, 125 g ai/ha, scale 0 to 100 (0 no effect, 100 complete control)
[6] = Postemergence, 250 g ai/ha, scale 0 to 100 (0 no effect, 100 complete control)
[7] = Preemergence, 31 g ai/ha, scale 0 to 100, 0 is no effect and 100 is complete control
[8] = Preemergence, 62 g ai/ha, scale 0 to 100 (0 no effect, 100 complete control)
[9] = Preemergence, 125 g ai/ha, scale 0 to 100 (0 no effect, 100 complete control)
[10] = Postemergence, 125 g ai/ha, visual rating on 0 to 100 scale (0 no effect, 100 complete control), approx. 10 days
[11] = Postemergence, 500 g ai/ha, 0 to 100 scale (0 no effect, 100 complete control)
[12] = Preemergence, 125 g ai/ha, 0 to 100 scale where 0 is no effect and 100 is complete control
[13] = Preemergence, 500 g ai/ha, visual rating on 0 to 100 scale (0 no effect, 100 complete control)
[14] = Preemergence, 125 g ai/ha, scale 0 to 100
[15] = Preemergence, 31 g ai/ha, scale 0 to 100

CN1CC(c2ccc(C(F)(F)F)cc2)C(C(=O)Nc2cccc(F)c2F)C1=O (centres unmarked) [Compound 306]
Plant response rating, Corn (corn; [1]): 50
Plant response rating, Corn (corn; [2]): 70
Plant response rating, Morningglory (morningglory; [3]): 0
Plant response rating, Morningglory (morningglory; [4]): 35
Plant response rating, Morningglory (morningglory; [5]): 65
Plant response rating, Morningglory (morningglory; [6]): 5
Morningglory plant response rating (morningglory; [7]): 0
Morningglory plant response rating (morningglory; [8]): 35
Plant response rating, Morningglory (morningglory; [9]): 35
Plant response rating (scale of 0 to 100), Morningglory (morningglory; Preemergence, 250 g ai/ha): 35
Plant response rating, Ryegrass, Italian (ryegrass, Italian; [3]): 0
Plant response rating, Ryegrass, Italian (ryegrass, Italian; [4]): 0
Plant response rating, Ryegrass, Italian (ryegrass, Italian; [5]): 5
Plant response rating, Ryegrass, Italian (ryegrass, Italian; [6]): 20
Ryegrass, Italian plant response rating (ryegrass, Italian; [8]): 40
Plant response rating, Ryegrass, Italian (ryegrass, Italian; [9]): 55
Plant response rating (scale of 0 to 100), Ryegrass, Italian (ryegrass, Italian; Preemergence, 250 g ai/ha): 70
Plant response rating, Barnyardgrass (barnyardgrass; [3]): 0
Plant response rating, Barnyardgrass (barnyardgrass; [4]): 45
Plant response rating, Barnyardgrass (barnyardgrass; [5]): 85
Plant response rating, Barnyardgrass (barnyardgrass; [6]): 85
Barnyardgrass plant response rating (barnyardgrass; [7]): 90
Barnyardgrass plant response rating (barnyardgrass; [8]): 90
Plant response rating, Barnyardgrass (barnyardgrass; [9]): 90
Plant response rating (scale of 0 to 100; 0 is no effect, 100 is complete control), Barnyardgrass (barnyardgrass; Preemergence, 250 g ai/ha): 95
Plant response rating, Johnsongrass (johnsongrass; [3]): 0
Plant response rating, Johnsongrass (johnsongrass; [4]): 0
Plant response rating, Johnsongrass (johnsongrass; [5]): 0
Plant response rating, Johnsongrass (johnsongrass; [6]): 0
Johnsongrass plant response rating (johnsongrass; [7]): 35
Johnsongrass plant response rating (johnsongrass; [8]): 55
Plant response rating, Johnsongrass (johnsongrass; [9]): 80
Plant response rating (scale of 0 to 100), Johnsongrass (johnsongrass; Preemergence, 250 g ai/ha): 85
Plant response rating, Kochia (kochia; [10]): 30
Plant response rating, Kochia (kochia; [11]): 70
Plant response rating, Kochia (kochia; [12]): 70
Kochia plant response rating (kochia; [13]): 80

O=C1NCC(c2ccc(C(F)(F)F)cc2)C1C(=O)Nc1ccccc1F (centres unmarked) [Compound 231]
Plant response rating, Corn (corn; 125 g ai/ha, 0 to 100 scale, 0 is no effect, 100 is complete control): 30
Corn plant response rating (0 to 100 scale, 0 is no effect, 100 is complete control) (corn; 500 g ai/ha): 40
Morningglory plant response rating (morningglory; [7]): 0
Morningglory plant response rating (morningglory; [8]): 0
Plant response rating, Morningglory (morningglory; [9]): 0
Plant response rating (scale of 0 to 100), Morningglory (morningglory; Preemergence, 250 g ai/ha): 20
Ryegrass, Italian plant response rating (ryegrass, Italian; [7]): 0
Ryegrass, Italian plant response rating (ryegrass, Italian; [8]): 10
Plant response rating, Ryegrass, Italian (ryegrass, Italian; [9]): 15
Plant response rating (scale of 0 to 100), Ryegrass, Italian (ryegrass, Italian; Preemergence, 250 g ai/ha): 15
Barnyardgrass plant response rating (barnyardgrass; [7]): 85
Plant response rating, Barnyardgrass (barnyardgrass; Preemergence, 62 g ai/ha, scale 0 to 100): 90
Plant response rating, Barnyardgrass (barnyardgrass; [9]): 95
Plant response rating (scale of 0 to 100; 0 is no effect, 100 is complete control), Barnyardgrass (barnyardgrass; Preemergence, 250 g ai/ha): 95
Johnsongrass plant response rating (johnsongrass; [7]): 0
Johnsongrass plant response rating (johnsongrass; [8]): 10
Plant response rating, Johnsongrass (johnsongrass; [9]): 45
Plant response rating (scale of 0 to 100), Johnsongrass (johnsongrass; Preemergence, 250 g ai/ha): 60
Plant response rating, Kochia (kochia; 125 g ai/ha, visual rating, 0 to 100 scale, 0 no effect, 100 complete control, approximately 10 days, preemergence): 70
Plant response rating, Kochia (kochia; Postemergence, 125 g ai/ha, 0 to 100 scale, 0 is no effect, 100 is complete control): 70
Kochia plant response rating (0 to 100 scale, 0 is no effect, 100 is complete control) (kochia; Postemergence, 500 g ai/ha): 90
Plant response rating, Kochia (kochia; preemergence, 500 g ai/ha, 0 to 100 scale, 0 is no effect and 100 is complete control): 90

CC(C)c1cccc(C2CNC(=O)C2C(=O)Nc2cccc(F)c2F)c1 (centres unmarked) [Compound 319]
Plant response rating, Corn (corn; [1]): 40
Plant response rating, Corn (corn; [2]): 80
Morningglory plant response rating (morningglory; [7]): 55
Morningglory plant response rating (morningglory; [8]): 40
Plant response rating, Morningglory (morningglory; [14]): 45
Plant response rating (scale of 0 to 100), Morningglory (morningglory; Preemergence, 250 g ai/ha): 40
Ryegrass, Italian plant response rating (ryegrass, Italian; [8]): 10
Plant response rating, Ryegrass, Italian (ryegrass, Italian; [14]): 20
Barnyardgrass plant response rating (barnyardgrass; [7]): 90
Barnyardgrass plant response rating (barnyardgrass; [8]): 95
Plant response rating, Barnyardgrass (barnyardgrass; [9]): 95
Plant response rating (scale of 0 to 100; 0 is no effect, 100 is complete control), Barnyardgrass (barnyardgrass; Preemergence, 250 g ai/ha): 98
Johnsongrass plant response rating (johnsongrass; [7]): 40
Johnsongrass plant response rating (johnsongrass; [8]): 55
Plant response rating, Johnsongrass (johnsongrass; [14]): 65
Plant response rating (scale of 0 to 100), Johnsongrass (johnsongrass; Preemergence, 250 g ai/ha): 75
Plant response rating, Kochia (kochia; [10]): 30
Plant response rating, Kochia (kochia; [11]): 50
Plant response rating, Kochia (kochia; [12]): 60
Kochia plant response rating (kochia; [13]): 80

CN1CC(c2cccc(C(F)(F)F)c2)C(C(=O)Nc2cccc(F)c2F)C1=O (centres unmarked) [Compound 305]
Plant response rating, Corn (corn; [1]): 70
Plant response rating, Corn (corn; [2]): 70
Plant response rating, Morningglory (morningglory; [3]): 25
Plant response rating, Morningglory (morningglory; [4]): 20
Plant response rating, Morningglory (morningglory; [5]): 75
Plant response rating, Morningglory (morningglory; [6]): 20
Morningglory plant response rating (morningglory; [7]): 0
Morningglory plant response rating (morningglory; [8]): 30
Plant response rating, Morningglory (morningglory; [9]): 40
Plant response rating (scale of 0 to 100), Morningglory (morningglory; Preemergence, 250 g ai/ha): 65
Plant response rating, Ryegrass, Italian (ryegrass, Italian; [3]): 0
Plant response rating, Ryegrass, Italian (ryegrass, Italian; [4]): 0
Plant response rating, Ryegrass, Italian (ryegrass, Italian; [5]): 0
Plant response rating, Ryegrass, Italian (ryegrass, Italian; [6]): 45
Ryegrass, Italian plant response rating (ryegrass, Italian; [7]): 15
Ryegrass, Italian plant response rating (ryegrass, Italian; [8]): 50
Plant response rating, Ryegrass, Italian (ryegrass, Italian; [9]): 50
Plant response rating (scale of 0 to 100), Ryegrass, Italian (ryegrass, Italian; Preemergence, 250 g ai/ha): 80
Plant response rating, Barnyardgrass (barnyardgrass; [3]): 20
Plant response rating, Barnyardgrass (barnyardgrass; [4]): 55
Plant response rating, Barnyardgrass (barnyardgrass; [5]): 70
Plant response rating, Barnyardgrass (barnyardgrass; [6]): 80
Barnyardgrass plant response rating (barnyardgrass; [7]): 90
Barnyardgrass plant response rating (barnyardgrass; [8]): 95
Plant response rating, Barnyardgrass (barnyardgrass; [9]): 95
Plant response rating (scale of 0 to 100; 0 is no effect, 100 is complete control), Barnyardgrass (barnyardgrass; Preemergence, 250 g ai/ha): 98
Plant response rating, Johnsongrass (johnsongrass; [3]): 0
Plant response rating, Johnsongrass (johnsongrass; [4]): 0
Plant response rating, Johnsongrass (johnsongrass; [5]): 20
Plant response rating, Johnsongrass (johnsongrass; [6]): 20
Johnsongrass plant response rating (johnsongrass; [7]): 80
Johnsongrass plant response rating (johnsongrass; [8]): 85
Plant response rating, Johnsongrass (johnsongrass; [9]): 90
Plant response rating (scale of 0 to 100), Johnsongrass (johnsongrass; Preemergence, 250 g ai/ha): 90
Plant response rating, Kochia (kochia; [10]): 30
Plant response rating, Kochia (kochia; [11]): 70
Plant response rating, Kochia (kochia; [12]): 70
Kochia plant response rating (kochia; [13]): 70

O=C1NCC(c2ccc(OC(F)F)cc2)C1C(=O)Nc1cccc(F)c1F (racemic) [Compound 350]
Plant response rating, Corn (corn; [1]): 20
Plant response rating, Corn (corn; [2]): 40
Morningglory plant response rating (morningglory; [8]): 100
Plant response rating, Morningglory (morningglory; [14]): 100
Plant response rating (scale of 0 to 100), Morningglory (morningglory; Preemergence, 250 g ai/ha): 100
Plant response rating, Morningglory (morningglory; [15]): 100
Ryegrass, Italian plant response rating (ryegrass, Italian; [8]): 0
Plant response rating, Ryegrass, Italian (ryegrass, Italian; [14]): 5
Plant response rating, Ryegrass, Italian (ryegrass, Italian; [15]): 0
Barnyardgrass plant response rating (barnyardgrass; [8]): 90
Plant response rating, Barnyardgrass (barnyardgrass; [9]): 90
Plant response rating (scale of 0 to 100; 0 is no effect, 100 is complete control), Barnyardgrass (barnyardgrass; Preemergence, 250 g ai/ha): 90
Plant response rating, Barnyardgrass (barnyardgrass; [15]): 75
Johnsongrass plant response rating (johnsongrass; [8]): 0
Plant response rating, Johnsongrass (johnsongrass; [14]): 0
Plant response rating (scale of 0 to 100), Johnsongrass (johnsongrass; Preemergence, 250 g ai/ha): 30
Plant response rating, Johnsongrass (johnsongrass; [15]): 0
Plant response rating, Kochia (kochia; [10]): 70
Plant response rating, Kochia (kochia; [12]): 80
Kochia plant response rating (kochia; [13]): 80

— US10294202B2, “Pyrrolidinones as herbicides” (FMC Corporation, priority 2013, dated 2019)
